Laboratory results: US20210393745A1, “OLIGOMER EXTENDED INSULIN-FC CONJUGATES AND THEIR MEDICAL USE” (Novo Nordisk A/S, priority 2018, published 2021)

What was measured:
[1] = target: T1, membrane-associated human IR-A (Homo sapiens, UniProt P06213); test: Insulin receptor affinity on membrane associated receptors (SPA), IR-A; type: binding; conditions: relative to human insulin
T1 construct: expressed in transfected cells; host or cells: BHK cells, pZem219B vector, plasma membrane preparation
Experimental: (§1) Membrane-associated human IR and IGF-1R are purified from BHK cells stably transfected with the pZem219B vector containing either the human IR-A, IR-B or IGF-IR insert. BHK cells are harvested and homogenized in ice-cold buffer (25 mM HEPES pH 7.4, 25 mM CaCl2 and 1 mM MgCl2, 250 mg/L bacitracin, 0.1 mM Pefablock). The homogenates are layered on a 41% (w/v) sucrose cushion and centrifuged for 75 minutes at 95000 g at 4° C. The plasma membranes are collected, diluted 1:5 with buffer (as above) and centrifuged again for 45 minutes at 40000 g at 4° C. The pellets are resuspended in a minimal volume of buffer and drawn through a needle (size 23) three times before storage at −80° C. until usage. The relative binding affinity for either of the membrane-associated human IR-A, IR-B or IGF-1R is determined by competition binding in a SPA setup. IR assays are performed in duplicate in 96-well OptiPlates (Perkin-Elmer Life Sciences). Membrane protein is incubated with gentle agitation for 150 minutes at 25° C. with 50 pM [^125IA14Y]-human insulin in a total volume of […] assay buffer (50 mM HEPES, 150 mM NaCl, 5 mM MgSO4, 0.01% Triton X-100, 0.1% (w/v) HSA (Sigma A1887), Complete EDTA-free protease inhibitors), 50 μg of wheat germ agglutinate (WGA)-coated PVT microspheres (GE Healthcare) and increasing concentrations of ligand. Assays are terminated by centrifugation of the plate at 2000 rpm for 2 minutes and bound radioactivity quantified by counting on a TopCount NXT (Perkin-Elmer Life Sciences).
(§2) IGF-1R assays are conducted essentially as for the IR binding assays except that membrane-associated IGF-1R and 50 pM [^125I-Tyr31]-human IGF-1 were employed.

[2] = target: T2, membrane-associated human IR-B (Homo sapiens, UniProt P06213); test: Insulin receptor affinity on membrane associated receptors (SPA), IR-B; type: binding; conditions: relative to human insulin
T2 construct: expressed in transfected cells; host or cells: BHK cells, pZem219B vector, plasma membrane preparation
Experimental: as §1, §2

[3] = target: T3, membrane-associated human IGF-1R (Homo sapiens, UniProt P08069); test: IGF-1 receptor affinity on membrane associated receptors (SPA); type: binding; conditions: membrane-associated IGF-1R, relative to human insulin
T3 construct: expressed in transfected cells; host or cells: BHK cells, pZem219B vector, plasma membrane preparation
Experimental: as §1, §2

primary rat adipocytes = test: Lipogenesis in rat adipocytes; type: cell-based; conditions: relative to human insulin
Experimental: As a measure of in vitro potency of the insulin conjugatess of the invention, lipogenesis can be used. Primary rat adipocytes are isolated from the epididymale fat pads and incubated with 3H-glucose in buffer containing e.g. 0.1% fat free HSA and either standard (human insulin, HI) or insulin conjugates of the invention. The labelled glucose is converted into extractable lipids in a dose dependent way, resulting in full dose response curves. The result is expressed as relative potency (%) with 95% confidence limits of insulin of the invention compared to standard (HI).

[4] = In vivo PK after s.c. dosing, normal rats; set-up: species or system Sprague-Dawley rat; conditions: s.c. 30 nmol/kg, mean value
Experimental: (§3) Insulin-Fc conjugates were tested in vivo by subcutaneous (s.c.) administration to normal and streptozotocin (STZ) treated male Sprague-Dawley (SD) rats.
(§4) The rats were dosed s.c. in the neck region with a dose of 30 nmol/kg of the insulin-Fc conjugates. Blood samples for blood glucose and plasma insulin analysis were collected from the tongue vein up to 10 days post dosing. The insulin-Fc concentrations were measured by immuno-assay (LLOQ=1000 pM) and the resulting half-life values after s.c. dosing are shown in Table 4. The PK profiles for normal rats are shown in FIG. 3 and for streptozotocin treated rats in FIG. 6. Blood glucose (BG) was measured using Biosen S Line (EKF) and the BG and baseline corrected BG profiles for normal rats are shown in FIGS. 1 and 2 and for streptozotocin treated rats in FIGS. 4 and 5 respectively.

[5] = In vivo PK after s.c. dosing, streptozotocin treated rats; set-up: species or system Sprague-Dawley rat; conditions: s.c. 30 nmol/kg, mean value
Experimental: as §3, §4

[6] = tested on: normal Sprague-Dawley rats; test: In vivo PD, blood glucose lowering in normal rats; set-up: species or system Sprague-Dawley rat; conditions: s.c. 30 nmol/kg, baseline corrected BG up to 10 days, difference from vehicle, mean
Experimental: as §3, §4

[7] = tested on: streptozotocin treated Sprague-Dawley rats; test: In vivo PD, blood glucose lowering in streptozotocin treated rats; set-up: species or system Sprague-Dawley rat; conditions: s.c. 30 nmol/kg, baseline corrected BG up to 10 days, difference from vehicle, mean
Experimental: as §3, §4

[8] = Stability study: purity by anionic exchange chromatography; type: physicochemical; conditions: purity %(5° C.) − purity %(30° C.), 30 μM, pH 7.4
Experimental: Samples for stability studies were prepared by weighing out 8-10 mg freeze-dried material. The freeze-dried material was solubilized to […] in a premade solution A (5 mM phophate (pH 7.4), 140 mM NaCl and 70 ppm polysorbate 20). Protein concentration was determined using absorbance at 280 nm using a Nanodrop 2000 (Thermo Fisher Scientific Inc.) and theoretical extinction coefficients. Dilution into solution A was done to reach a final concentration of 30 μM.
Anionic exchange chromatography was performed on an Ultra-Performance Liquid Chromatography system (Waters Acquity H-Class) equipped with a fluorescence detector (Waters Acquity FLR Detector). A Bio SAX column with dimensions 50×4.6 mm from Agilent, kept at 30° C., was used in gradient elution mode. Mobile phase A was 5/95 (v/v), acetonitrile/water with 25 mM BIS-TRIS propane, pH 7.3 and mobile phase B was 5/95 (v/v), acetonitrile/water with 25 mM BIS-TRIS propane and 350 mM NaCl, pH 7.3. Injection volume was 3 μL. The flow rate was kept at 0.5 mL/min with a linear gradient from 10 to 47% B in 3 min followed by a linear gradient from 47 to 55% B in 30 min. Peaks were detected with an emission wavelength of […] and data processing is performed with the EMPOWER 3 software from Waters. Samples were analysed for purity as percent API in relation to all other species.
Reported as Δ purity %=purity %(5° C.)−purity % (30° C.).
Stability of Fc-insulin analogues was evaluated by comparing purity from anion exchange chromatography and formation of high molecular weight products (HMWP) at 5° C. (control) versus 30° C. (heat induced stress). […] The amount of HMWP was decreased by 0.5-2% in the stressed sample versus the control, i.e. some aggregated material has disassociated during incubation at 30° C.

hFcRn ectodomain = target: T4, hFcRn ectodomain (Homo sapiens, UniProt P55899); test: SPR analysis of the binding of hFcRn ECD; conditions: pH 6.0, 25° C., steady-state fitting; read-out: Kn (μM), binding of hFcRn ECD
T4 construct: the hFcRn ectodomain diluted at 4000 nM with 2-fold serial dilutions was injected
Experimental: First, the three Insulin-Fc samples diluted at 10 ug/ml and the wild-type hIgG4 Fc (produced in HEK293 cells, i.e. glycosylated) diluted at 30 ug/ml in 10 mM sodium acetate (pH 4.5) (GE Healthcare, catalogue #BR100350) were immobilized on a CMD50L sensor chip (XanTec Bioanalytics GmbH) at spot 2 or 4 at 70-90 RU in each used flow cell via amine coupling with 1×HBS-EP+ (pH 7.4) (GE Healthcare, catalogue #BR-1006-69) used as the running buffer. The wild-type hIgG4 Fc was used as the control sample. In each used flow cell, spots 2, 3 and 4 were activated by 100 mM N-hydroxysuccinimide (NHS) and 400 mM N-ethyl-N′-dimethylaminopropyl carbodiimide hydrochloride (EDC) mixed at equal volume before the immobilization and blocked by 1 M ethanolamine hydrochloride-NaOH (pH 8.5) after the immobilization. NHS, EDC and ethanolamine were obtained from the Amine Coupling Kit, type 2 (GE Healthcare, catalogue #BR100633).
Next, the hFcRn ectodomain diluted at 4000 nM with 2-fold serial dilutions was injected through each used flow cell for 60 sec to allow for binding of the hFcRn ectodomain to the Insulin-Fc conjugates and wild-type hIgG4 Fc samples immobilized on the sensor chip, followed by dissociation for 180 sec. 1×PBS-EP+ (pH 6.0) was used as the dilution buffer for the hFcRn ectodomain and the running buffer in each binding cycle at the flow rate of 30 ul/min. After each binding cycle, the sensor chip was regenerated with a 60 sec injection of 1×PBS-EP+ (pH 7.4) at the flow rate of 30 ul/min. The 1×PBS-EP+ (pH 7.4) buffer was prepared by diluting 0.5 M EDTA (pH 8.0) (Invitrogen, catalogue #15575038) at 3 mM into 1×PBS-P+ (GE Healthcare, catalogue #28995084). The 1×PBS-EP+ (pH 6.0) buffer was prepared by adjusting the pH of the 1×PBS-EP+ buffer from 7.4 to 6.0 using ˜10 M HCl. The affinities (equilibrium dissociation constants, KD) were determined via steady-state fitting of the binding curves using the 1:1 binding model in Biacore 4000 Evaluation Software 1.0 (GE Healthcare).

T3 sequence (P08069 31-736 limits assumed): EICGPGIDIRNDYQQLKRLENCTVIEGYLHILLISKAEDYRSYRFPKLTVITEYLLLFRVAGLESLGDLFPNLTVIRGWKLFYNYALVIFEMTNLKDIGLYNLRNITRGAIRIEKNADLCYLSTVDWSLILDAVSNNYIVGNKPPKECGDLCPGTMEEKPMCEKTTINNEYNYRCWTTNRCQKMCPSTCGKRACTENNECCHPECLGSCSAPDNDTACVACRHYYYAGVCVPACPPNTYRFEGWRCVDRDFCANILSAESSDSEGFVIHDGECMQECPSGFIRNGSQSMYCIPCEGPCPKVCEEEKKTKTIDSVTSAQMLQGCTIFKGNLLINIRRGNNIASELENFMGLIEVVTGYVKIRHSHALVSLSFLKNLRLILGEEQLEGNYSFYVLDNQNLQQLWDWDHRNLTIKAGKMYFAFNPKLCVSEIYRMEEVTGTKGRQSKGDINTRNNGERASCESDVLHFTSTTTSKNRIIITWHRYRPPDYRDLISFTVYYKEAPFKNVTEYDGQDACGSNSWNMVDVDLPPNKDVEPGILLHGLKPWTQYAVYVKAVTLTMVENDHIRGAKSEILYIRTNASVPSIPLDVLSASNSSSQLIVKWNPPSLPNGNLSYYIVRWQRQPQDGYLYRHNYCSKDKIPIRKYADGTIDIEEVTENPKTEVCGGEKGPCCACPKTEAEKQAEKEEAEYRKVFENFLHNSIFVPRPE
T3 sequence (P08069 741-1367 partner limits assumed): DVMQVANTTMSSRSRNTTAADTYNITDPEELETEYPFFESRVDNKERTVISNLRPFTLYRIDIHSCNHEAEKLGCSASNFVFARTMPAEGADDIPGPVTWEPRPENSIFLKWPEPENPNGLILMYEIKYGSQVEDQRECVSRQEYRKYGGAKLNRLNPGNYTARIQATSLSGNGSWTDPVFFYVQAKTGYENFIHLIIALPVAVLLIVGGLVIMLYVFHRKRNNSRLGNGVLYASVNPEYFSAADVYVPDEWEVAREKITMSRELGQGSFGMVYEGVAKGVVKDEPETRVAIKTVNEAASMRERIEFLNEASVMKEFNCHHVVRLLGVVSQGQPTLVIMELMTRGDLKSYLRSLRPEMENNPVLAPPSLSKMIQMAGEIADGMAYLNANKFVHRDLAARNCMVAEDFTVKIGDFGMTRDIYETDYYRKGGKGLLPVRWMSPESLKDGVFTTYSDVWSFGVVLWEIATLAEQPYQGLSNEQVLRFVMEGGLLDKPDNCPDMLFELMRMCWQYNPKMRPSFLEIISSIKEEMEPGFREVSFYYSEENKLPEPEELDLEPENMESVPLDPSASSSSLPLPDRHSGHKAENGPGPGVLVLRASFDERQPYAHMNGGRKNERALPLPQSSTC
T1 sequence (P06213 28-1370 isoform P06213-2 limits assumed): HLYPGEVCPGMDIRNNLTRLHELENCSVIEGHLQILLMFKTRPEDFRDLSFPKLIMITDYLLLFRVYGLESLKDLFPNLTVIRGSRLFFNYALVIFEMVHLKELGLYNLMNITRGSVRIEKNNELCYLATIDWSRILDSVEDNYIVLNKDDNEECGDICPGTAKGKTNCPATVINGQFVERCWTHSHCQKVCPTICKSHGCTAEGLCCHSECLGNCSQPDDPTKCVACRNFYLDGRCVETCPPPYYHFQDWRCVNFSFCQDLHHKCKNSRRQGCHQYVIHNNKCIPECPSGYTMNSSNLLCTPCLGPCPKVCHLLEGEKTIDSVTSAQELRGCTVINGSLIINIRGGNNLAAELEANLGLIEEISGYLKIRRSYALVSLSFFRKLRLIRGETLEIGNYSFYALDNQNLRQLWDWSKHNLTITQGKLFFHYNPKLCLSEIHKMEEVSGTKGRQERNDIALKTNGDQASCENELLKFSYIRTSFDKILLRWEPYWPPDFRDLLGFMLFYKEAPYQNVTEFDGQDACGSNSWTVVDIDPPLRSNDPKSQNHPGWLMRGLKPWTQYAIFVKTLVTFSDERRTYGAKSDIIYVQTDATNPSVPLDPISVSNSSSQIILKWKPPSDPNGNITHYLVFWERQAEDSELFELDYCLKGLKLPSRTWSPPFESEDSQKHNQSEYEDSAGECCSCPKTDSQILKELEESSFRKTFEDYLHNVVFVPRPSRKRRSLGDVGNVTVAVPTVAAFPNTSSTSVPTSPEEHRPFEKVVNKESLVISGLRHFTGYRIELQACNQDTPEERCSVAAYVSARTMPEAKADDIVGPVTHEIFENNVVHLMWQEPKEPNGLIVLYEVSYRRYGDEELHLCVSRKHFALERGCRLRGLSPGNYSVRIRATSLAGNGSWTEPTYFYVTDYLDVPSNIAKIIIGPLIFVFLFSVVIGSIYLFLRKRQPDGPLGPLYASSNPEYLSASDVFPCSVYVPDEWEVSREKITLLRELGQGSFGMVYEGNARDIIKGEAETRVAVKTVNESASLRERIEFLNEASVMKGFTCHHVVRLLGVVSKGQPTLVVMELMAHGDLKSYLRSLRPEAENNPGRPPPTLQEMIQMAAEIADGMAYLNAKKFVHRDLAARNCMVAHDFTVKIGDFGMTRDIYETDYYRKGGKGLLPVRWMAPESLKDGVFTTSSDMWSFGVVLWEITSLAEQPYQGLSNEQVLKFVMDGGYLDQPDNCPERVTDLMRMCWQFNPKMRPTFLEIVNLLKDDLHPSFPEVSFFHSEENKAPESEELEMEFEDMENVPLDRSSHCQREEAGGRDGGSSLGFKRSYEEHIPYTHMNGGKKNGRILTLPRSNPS
T1 sequence (P06213 763-1382 partner limits assumed): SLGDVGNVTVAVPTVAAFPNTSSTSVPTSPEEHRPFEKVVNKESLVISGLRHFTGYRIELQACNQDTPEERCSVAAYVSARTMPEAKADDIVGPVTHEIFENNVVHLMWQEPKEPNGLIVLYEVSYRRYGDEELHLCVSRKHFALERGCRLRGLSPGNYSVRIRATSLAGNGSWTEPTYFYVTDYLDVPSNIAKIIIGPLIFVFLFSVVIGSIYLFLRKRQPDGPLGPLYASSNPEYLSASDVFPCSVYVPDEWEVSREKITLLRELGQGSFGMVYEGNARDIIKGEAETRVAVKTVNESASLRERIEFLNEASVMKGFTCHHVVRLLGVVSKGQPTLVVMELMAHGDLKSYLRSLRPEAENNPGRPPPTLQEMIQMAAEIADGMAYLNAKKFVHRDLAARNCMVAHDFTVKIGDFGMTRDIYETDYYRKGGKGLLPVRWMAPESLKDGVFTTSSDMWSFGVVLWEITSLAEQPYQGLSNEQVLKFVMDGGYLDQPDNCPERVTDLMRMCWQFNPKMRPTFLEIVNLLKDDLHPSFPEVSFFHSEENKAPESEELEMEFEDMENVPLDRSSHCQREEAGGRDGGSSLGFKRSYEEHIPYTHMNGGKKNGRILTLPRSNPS
T4 sequence (P55899 24-297 limits assumed): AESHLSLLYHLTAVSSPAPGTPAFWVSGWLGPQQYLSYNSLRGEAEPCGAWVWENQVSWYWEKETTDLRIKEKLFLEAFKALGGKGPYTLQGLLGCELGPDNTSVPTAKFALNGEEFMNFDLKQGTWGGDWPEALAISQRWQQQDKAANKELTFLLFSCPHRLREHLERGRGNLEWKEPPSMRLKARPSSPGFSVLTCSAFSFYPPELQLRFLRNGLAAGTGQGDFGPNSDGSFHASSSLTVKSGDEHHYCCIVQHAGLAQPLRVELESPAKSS
T4 sequence (P61769 21-119 partner): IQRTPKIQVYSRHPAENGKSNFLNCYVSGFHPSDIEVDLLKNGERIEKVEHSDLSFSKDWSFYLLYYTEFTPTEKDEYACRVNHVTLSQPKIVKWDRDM
T2 sequence (P06213 28-758 limits assumed): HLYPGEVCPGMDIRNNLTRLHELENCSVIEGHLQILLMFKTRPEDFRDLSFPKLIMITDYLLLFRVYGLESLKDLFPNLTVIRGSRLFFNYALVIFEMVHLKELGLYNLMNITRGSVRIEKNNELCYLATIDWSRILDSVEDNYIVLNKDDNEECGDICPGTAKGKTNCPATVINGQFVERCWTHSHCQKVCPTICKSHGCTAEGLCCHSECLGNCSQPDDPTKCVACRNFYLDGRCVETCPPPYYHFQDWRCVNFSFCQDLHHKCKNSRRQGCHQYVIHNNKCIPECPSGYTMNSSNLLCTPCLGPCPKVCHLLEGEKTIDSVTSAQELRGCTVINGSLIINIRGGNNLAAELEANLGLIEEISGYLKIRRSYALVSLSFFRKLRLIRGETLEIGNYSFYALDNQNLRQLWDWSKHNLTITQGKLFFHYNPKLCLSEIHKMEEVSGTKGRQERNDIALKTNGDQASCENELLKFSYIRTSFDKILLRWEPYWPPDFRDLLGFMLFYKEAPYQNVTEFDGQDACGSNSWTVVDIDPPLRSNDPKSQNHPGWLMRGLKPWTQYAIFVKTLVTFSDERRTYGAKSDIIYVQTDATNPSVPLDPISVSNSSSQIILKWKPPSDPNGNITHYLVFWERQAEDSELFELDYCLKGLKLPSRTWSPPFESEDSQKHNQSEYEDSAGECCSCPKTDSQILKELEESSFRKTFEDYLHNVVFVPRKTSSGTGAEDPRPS
T2 sequence (P06213 763-1382 partner limits assumed): as the sequence (P06213 763-1382 partner limits assumed) above

(A14E, A21G, A22(GQEP)11, A66G, A67Q, A68E, A69K^, A70P, B16E, B25H, B29R, desB30 human insulin)/(226A, 227G, 228P, 234A, 235K, 297E, 315Q, 384Q, des447 hIgG4-Fc(226-447))3,5-bis[(2-acetyl)amino]benzoyl Conjugate [Example 5.3]
hIR-A mem Rel. aff. (%) [1]: 0.66%
hIR-B mem Rel. aff. (%) [2]: 0.59%
IGF1R mem Rel. aff. (%) [3]: 0.29%
Lipogenesis Rel. pot. (%) (primary rat adipocytes): 0.64%
PK normal rat [T1/2, s.c. (h)] [4]: 48 h
PK STZ rat [T1/2, s.c. (h)] [5]: 50 h
AOCBG normal rat [6]: 248 mM·h
AOCBG STZ rat [7]: 2771 mM·h
Δ purity [8]: 4.3%
Kd (hFcRn ectodomain): 1.5 µM
